Data: US9200253B1, “Method of producing erythrocytes” (Anthrogenesis Corporation, priority 2007, dated 2015)

Key:
CD34+ cells = experiment: Scaled-up CD34+ expansion in gas-permeable fluorocarbon culture bag; assay type: cell-based, human
Protocol: CD34^+ cells were seeded in 10^4/mL pomalidomide-supplemented medium in a flexible, gas-permeable fluorocarbon culture bag (American Fluoroseal). After 7 days of incubation, the culture was centrifuged and exchanged with fresh pomalidomide-supplemented medium at three times the initial volume. By day 12, TNC and CD34^+ expansion were 350 (range: 250-700) and 200 (range: 100-450) fold, respectively (FIG. 3). Viability was 86% (range: 80-90%) by trypan blue. A total of 20 million CD34^+ cells were harvested.

[1] = system: Pomalidomide-expanded CD34+ cells; experiment: Cumulative colony forming units of expanded CD34+ cells; assay type: cell-based, human
[2] = system: human UCB derived CD34+ cells; experiment: Ex-vivo expansion of CD34+ cells in short-term serum-free, cytokine supplemented culture; assay type: cell-based; details: for CD34+ phenotype in the expanded population: control 10-30%; for total nucleated cell expansion: not impacted vs control
Protocol: The ability of pomalidomide to enhance the expansion of human UCB derived CD34^+ cells in a short-term serum-free, cytokine supplemented culture system was evaluated. CD34^+ progenitor cells were enriched from cryopreserved UCB units to >90% purity and seeded (10^4 CD34^+ cells) in 1 mL of growth medium, which consists of IMDM plus serum substitute BIT (BSA, recombinant human insulin and transferrin, 20%), in the presence of SCF (50 ng/mL), Flt-3 ligand (50 ng/mL), and IL-3 (10 ng/mL). Pomalidomide, dissolved in DMSO, was supplemented at 2.7 μg/mL. The culture was incubated at 37° C., 5% CO2 for 12 days, with fresh medium added at day 7. Pomalidomide-free cultures with or without DMSO (0.05% v/v) were used as controls.

[3] = day 12, seeded 10^4/mL, medium exchanged day 7 (FIG. 3)
[4] = first experiment, 2.7 μg/mL, 12 days

Nc1cccc2c1C(=O)N(C1CCC(=O)NC1=O)C2=O (centres unmarked) [pomalidomide, 4-(Amino)-2-(2,6-dioxo(3-piperidyl))-isoindoline-1,3-dione]
Viability by trypan blue (CD34+ cells; day 12): 86%
total CD34+ cells harvested (CD34+ cells; day 12): 20 million
CD34+ expansion (CD34+ cells; [3]): 200 (range: 100-450) fold
TNC expansion (CD34+ cells; [3]): 350 (range: 250-700) fold
ex-vivo expansion of placental derived CD34+ progenitors (CD34+ cells; overall conclusion): significantly enhanced
cumulative colony forming units relative to expanded controls ([1]; first experiment): substantial improvement
cumulative colony forming units relative to expanded controls ([1]; second, similar experiment): substantial improvement
CD38 expression on cultured cells [2, 4]: appeared to down-regulate CD38 expression
CD38 negative fraction of expanded CD34+ cells [2, 4]: 95%
CD34+ phenotype in the expanded population [2, 4]: 40-60%
CD133 level on expanded CD34+ cells ([2]; first experiment, 2.7 μg/mL, 12 days, control 40%): 15%
total nucleated cell expansion ([2]; first experiment, pomalidomide 2.7 μg/mL, 12 days): 200-350 fold
CD38 expression on cultured cells ([2]; second, similar experiment): appeared to down-regulate CD38 expression
CD38 negative fraction of expanded CD34+ cells ([2]; second, similar experiment): 97%
CD34+ phenotype in the expanded population ([2]; second, similar experiment (FIG. 2)): 40-60%
total nucleated cell expansion ([2]; second, similar experiment, 2.7 μg/mL, 12 days): 200-350 fold
CD133 level on expanded CD34+ cells ([2]; second, similar experiment, control 32.3%): 11.5%
